Literature values, collected in patent US11491138B2, “Injectable psychoactive alkaloid composition and preparation thereof” (PSILO SCIENTIFIC LTD, priority 2020, dated 2022).

Key:
[1] = stated as known property
[2] = reason for composition pH of 4.5-5.5

Q: Which results are given for `CN(C)CCc1c[nH]c2cccc(O)c12` [psilocin]?
A: isoelectric point [1]: 8.47±0.25 pH; pH at which instability occurs [2]: over 5.5 pH
